Assay results taken from patent US20230027066A1 (Urovant Sciences GmbH, priority 2019, published 2023).

System: men and women with overactive bladder
Assay: Phase 3 study of vibegron 75 mg vs placebo and tolterodine ER 4 mg, 12 weeks, efficacy (voiding and urine volume diary)
Type: in vivo, human
Details: for Patients with at Least 50% Reduction in Urgency Episodes, Adjusted n / Patients with at Least 50% Reduction in Urgency Episodes, Unadjusted (%) / Patients with at Least 50% Reduction in Urgency Episodes, Unadjusted n / Urgency 50% responders, Active - Placebo CMH Difference / Patients with at Least 50% Reduction in Urgency Episodes, Adjusted (%): Dry population; for Urgency Episodes, Week 12 CFB Mean: descriptive statistics; for Micturitions: LS Mean (95% CI): Table 32, week 12
Procedure: Enrollment of patients included individuals with OAB Wet (those with UUI, the involuntary loss of urine accompanied by urgency) and OAB Dry (those without UUI). A total of 1,518 patients were randomized across 215 study sites into one of three groups for a 12-week treatment period.
The study consisted of a Screening Period (1 to 5 weeks), a single-blind Run-in Period (2 weeks), a randomized double-blind Treatment Period (12 weeks), and a Follow-up Period (4 weeks).
Tolterodine ER 4 mg was the active control. […] Between the Baseline and Week 12 Visits, patients had study assessments at Week 4 and Week 8.
The Patient Voiding Diary was used by participants (via the eDiary or paper Diary) to record the frequency of daily OAB symptoms including all micturitions, urgency, incontinence, and main reason for incontinence by selecting the respective box for each symptom occurring during the course of a given day and night.
Urine volume data were collected separately by patients using the Urine Volume component of the eDiary, or the paper Urine Volume Chart. The Urine Volume Chart is a tool used in clinical practice and clinical investigation to assess voiding functions over a 24-hour period and is regarded as a useful instrument in the investigation of patients with voiding symptoms. Urine volume may be collected during any one (1) of the 7 Diary Days prior to the visit, and it should be recorded for ˜24 hours starting from the time the patient gets up for the day and continues until the time the patient gets up for the day on the next day.
For the purpose of this study, the number of micturitions was defined as the number of times a patient has voided in the toilet as indicated on the Patient Voiding Diary. Average daily micturitions were calculated using the daily entries in the Patient Voiding Diary, which was completed over the 7 days prior to each study visit. Average daily number of micturitions were calculated as the total number of micturitions that occurred on a Complete Diary Day divided by the number of Complete Diary Days in the Patient Voiding Diary. A complete diary day required confirmation by the patient in the Patient Voiding Diary that all voids and leakages had been recorded for the diary day. Baseline was defined as the average number of micturitions occurring during the last evaluable diary prior to the Baseline Visit.
The number of UUI episodes was defined as the number of times a patient had checked “urge” as the reason for accidental urine leakage. Average daily UUI episodes at each study visit were calculated in the same manner as described above for the micturition endpoint. The UUI endpoint were analyzed using only OAB Wet patients.
For the analysis of the co-primary endpoints (change from baseline in average number of daily micturitions at Week 12 and change from baseline in average number of daily urge urinary incontinence episodes at Week 12, and placebo adjustment of each), a mixed model for repeated measure (MMRM) with restricted maximum likelihood estimation was used. This model corrects for dropout and accounts for the fact that measurements taken on the same patient over time tend to be correlated by using all available information on patients within the same covariate set to derive an estimate of the treatment effect for a dropout-free population. The analysis model for each efficacy endpoint includes terms for treatment, visit, OAB Type (Wet vs Dry), Sex (Female vs Male), Region (US vs Rest of World), baseline score, and interaction of visit by treatment.
Primary inferences were drawn from treatment differences for the changes from baseline derived from the MMRM models at Week 12. As part of secondary objectives, the treatment differences for each post baseline visit were also derived using the same MMRM model. […]

[1] = No prior anticholinergic use during the prior 12 months
[2] = No prior mirabegron use during the prior 12 months
[3] = Overall, events of Events/Censored
[4] = Prior anticholinergic use during the prior 12 months
[5] = Prior mirabegron use during the prior 12 months
[6] = Week 2, events of Events/Censored
[7] = Week 4, events of Events/Censored

Compound: O=C(Nc1ccc(C[C@@H]2CC[C@H]([C@H](O)c3ccccc3)N2)cc1)[C@@H]1CCc2nccc(=O)n21 [Vibegron, (6S)-N-[4-[[(2S,5R)−5-[(R)-hydroxy(phenyl)methyl]pyrrolidin−2-yl]methyl]phenyl]−4-oxo−7,8-dihydro−6H-pyrrolo[1,2-a]pyrimidine−6-carboxamide]
- Patients with at Least 50% Reduction in Urgency Episodes, Adjusted n (baseline to Week 4): 28
- Patients with at Least 50% Reduction in Urgency Episodes, Unadjusted (%) (baseline to Week 4): 25.2%
- Patients with at Least 50% Reduction in Urgency Episodes, Unadjusted n (baseline to Week 4): 31
- Urgency 50% responders, Active - Placebo CMH Difference (baseline to Week 4): 5.4
- Patients with at Least 50% Reduction in Urgency Episodes, Adjusted (%) (baseline to Week 8): 31.9%
- Patients with at Least 50% Reduction in Urgency Episodes, Adjusted n (baseline to Week 8): 39
- Patients with at Least 50% Reduction in Urgency Episodes, Unadjusted (%) (baseline to Week 8): 35.0%
- Patients with at Least 50% Reduction in Urgency Episodes, Unadjusted n (baseline to Week 8): 43
- Urgency 50% responders, Active - Placebo CMH Difference (baseline to Week 8): 12.4
- Patients with at Least 50% Reduction in Urgency Episodes, Adjusted (%) (baseline to Week 12): 36.9%
- Patients with at Least 50% Reduction in Urgency Episodes, Adjusted n (baseline to Week 12): 45
- Patients with at Least 50% Reduction in Urgency Episodes, Unadjusted (%) (baseline to Week 12): 43.1%
- Patients with at Least 50% Reduction in Urgency Episodes, Unadjusted n (baseline to Week 12): 53
- Urgency 50% responders, Active - Placebo CMH Difference (baseline to Week 12): 13.9
- Urgency Episodes, Week 12 CFB Mean (Males with BPH): −1.90
- Urgency Episodes, Week 12 CFB Mean (Males without BPH): −2.56
- Urgency Episodes, Week 12 CFB Mean (No Prior ACH Use in last 12 Mo.): −3.00
- Urgency Episodes, Week 12 CFB Mean (No Prior B3 Agonist Use in last 12 Mo.): −2.94
- Micturitions, 12-week change [1]: −2.1
- UUI Episodes, 12-week change [1]: −2.1
- Micturitions, 12-week change [2]: −2.0
- UUI Episodes, 12-week change [2]: −2.0
- Overall Time to First 50% Decrease in Urgency Episodes, 25th Percentile (Overall): 4.1 weeks
- Overall Time to First 50% Decrease in Urgency Episodes, 50th Percentile (Overall): 12.3 weeks
- Overall Time to First 50% Decrease in Urgency Episodes, Median (95% CI) (Overall): 12.3 (12.1 to 12.6) weeks
- Overall Time to First 100% Decrease in UUI Episodes, 25th Percentile (Overall): 8.1, NE weeks
- Overall Time to First 100% Decrease in UUI Episodes, Median (95% CI) (Overall): 13.3 (12.9 to NE) weeks
- Urgency Episodes, Week 12 CFB Mean (Overall): −2.93
- First 50% Decrease in Urgency Episodes, Events [3]: 256/270
- First 100% Decrease in UUI Episodes, Events [3]: 146/257
- Urgency Episodes, Week 12 CFB Mean (Prior ACH Use in last 12 Mo.): −2.50
- Urgency Episodes, Week 12 CFB Mean (Prior B3 Agonist Use in last 12 Mo.): −2.56
- Micturitions, 12-week change [4]: −1.97
- UUI Episodes, 12-week change [4]: −1.46
- Micturitions, 12-week change [5]: −2.83
- UUI Episodes, 12-week change [5]: −1.64
- Micturitions: LS Mean (95% CI) (Age <65 years): −0.2 (−0.6 to 0.2)
- Micturitions: LS Mean (95% CI) (Age ≥65 years): −0.9 (−1.3 to −0.4)
- Micturitions: LS Mean (95% CI) (Age ≥75 years (posthoc analysis)): −1.0 (−1.8 to −0.1)
- Micturitions: LS Mean (95% CI) (Females): −0.5 (−0.8 to −0.2)
- Micturitions: LS Mean (95% CI) (Males): −0.6 (−1.4 to 0.1)
- Micturitions: LS Mean (95% CI) (Non-White): −0.5 (−1.2 to 0.1)
- Micturitions: LS Mean (95% CI) (OAB Type: Dry): −0.7 (−1.4 to −0.1)
- Micturitions: LS Mean (95% CI) (OAB Type: Wet): −0.5 (−0.8 to −0.1)
- Micturitions: LS Mean (95% CI) (Overall): −0.5 (−0.8 to −0.2)
- Micturitions: LS Mean (95% CI) (Region: Non-US): −0.4 (−1.4 to 0.5)
- Micturitions: LS Mean (95% CI) (Region: US): −0.5 (−0.8 to −0.2)
- Micturitions: LS Mean (95% CI) (White): −0.5 (−0.8 to −0.2)
- Average Daily Number of Total Incontinence, Mean (SD) (Week 2): 2.53 (3.118)
- Average daily number of urgency episodes, Mean (SD) (Week 2): 6.47 (4.458)
- Average volume voided per micturition, Active - Placebo LS Mean Difference (Week 2): 11.9 mL
- Change from Baseline in Average Daily Number of Total Incontinence, LS Mean (SE) (Week 2): −1.6 (0.14)
- Change from baseline in average daily number of urgency episodes, LS Mean (Week 2): −1.5
- Change from baseline in average volume voided per micturition, LS Mean (SE) (Week 2): 14.2 (3.02) mL
- Estimated Incidence of Subjects with 50% Decrease from Baseline (urgency episodes) (Week 2): 19.6
- Estimated Incidence of Subjects with 100% Decrease from Baseline (UUI episodes) (Week 2): 7.4
- Total Incontinence, Active - Placebo LS Mean Difference (SE) (Week 2): −0.7 (0.14)
- Urgency episodes, Active - Placebo LS Mean Difference (Week 2): −0.6
- First 50% Reduction in Urgency Episodes, Events [6]: 103/423
- First 100% Reduction in UUI Episodes, Events [6]: 30/373
- Average volume voided per micturition, Week 2 Mean (SD) (Week 2, vibegron 75 mg, tolterodine ER 4 mg): 165.6 (74.26) mL
- Average Daily Number of Total Incontinence, Mean (SD) (Week 4): 2.28 (3.239)
- Average daily number of urgency episodes, Mean (SD) (Week 4): 6.02 (4.458)
- Average volume voided per micturition, Active - Placebo LS Mean Difference (Week 4): 14.5 mL
- Average volume voided per micturition, Week 4 Mean (SD) (Week 4): 172.6 (76.57) mL
- Change from Baseline in Average Daily Number of Total Incontinence, LS Mean (SE) (Week 4): −1.9 (0.14)
- Change from baseline in average daily number of urgency episodes, LS Mean (Week 4): −1.9
- Change from baseline in average volume voided per micturition, LS Mean (SE) (Week 4): 18.9 (3.15) mL
- Estimated Incidence of Subjects with 50% Decrease from Baseline (urgency episodes) (Week 4): 21.1
- Estimated Incidence of Subjects with 100% Decrease from Baseline (UUI episodes) (Week 4): 9.2
- Total Incontinence, Active - Placebo LS Mean Difference (SE) (Week 4): −0.8 (0.14)
- Urgency episodes, Active - Placebo LS Mean Difference (Week 4): −0.8
- First 50% Reduction in Urgency Episodes, Events [7]: 111/415
- First 100% Reduction in UUI Episodes, Events [7]: 37/366
- Average Daily Number of Total Incontinence, Mean (SD) (Week 8): 2.05 (3.245)
- Average daily number of urgency episodes, Mean (SD) (Week 8): 5.58 (4.399)
- Average volume voided per micturition, Active - Placebo LS Mean Difference (Week 8): 18.3 mL
- Average volume voided per micturition, Week 8 Mean (SD) (Week 8): 173.4 (81.95) mL
- Change from Baseline in Average Daily Number of Total Incontinence, LS Mean (SE) (Week 8): −2.1 (0.15)
- Change from baseline in average daily number of urgency episodes, LS Mean (Week 8): −2.4
